Experimental data as given in article PMC12615753, “Glutathione as a taste modulator: molecular mechanisms of interaction with umami and sweet taste receptors” (Food Chemistry: Molecular Sciences, 2025).

Target: T1, hTAS1R1 D147A/rTAS1R3 (UniProt Q7RTX1+Q923K1, D147A)
T1 construct: UniProtKB number Q7RTX1–1); The cDNA coding region of rTAS1R3 was synthesized with optimized-codon usage for human expression; expressed in transfected cells; host or cells: HEK293T/17
T1 sequence (Q7RTX1 21-841 D147A): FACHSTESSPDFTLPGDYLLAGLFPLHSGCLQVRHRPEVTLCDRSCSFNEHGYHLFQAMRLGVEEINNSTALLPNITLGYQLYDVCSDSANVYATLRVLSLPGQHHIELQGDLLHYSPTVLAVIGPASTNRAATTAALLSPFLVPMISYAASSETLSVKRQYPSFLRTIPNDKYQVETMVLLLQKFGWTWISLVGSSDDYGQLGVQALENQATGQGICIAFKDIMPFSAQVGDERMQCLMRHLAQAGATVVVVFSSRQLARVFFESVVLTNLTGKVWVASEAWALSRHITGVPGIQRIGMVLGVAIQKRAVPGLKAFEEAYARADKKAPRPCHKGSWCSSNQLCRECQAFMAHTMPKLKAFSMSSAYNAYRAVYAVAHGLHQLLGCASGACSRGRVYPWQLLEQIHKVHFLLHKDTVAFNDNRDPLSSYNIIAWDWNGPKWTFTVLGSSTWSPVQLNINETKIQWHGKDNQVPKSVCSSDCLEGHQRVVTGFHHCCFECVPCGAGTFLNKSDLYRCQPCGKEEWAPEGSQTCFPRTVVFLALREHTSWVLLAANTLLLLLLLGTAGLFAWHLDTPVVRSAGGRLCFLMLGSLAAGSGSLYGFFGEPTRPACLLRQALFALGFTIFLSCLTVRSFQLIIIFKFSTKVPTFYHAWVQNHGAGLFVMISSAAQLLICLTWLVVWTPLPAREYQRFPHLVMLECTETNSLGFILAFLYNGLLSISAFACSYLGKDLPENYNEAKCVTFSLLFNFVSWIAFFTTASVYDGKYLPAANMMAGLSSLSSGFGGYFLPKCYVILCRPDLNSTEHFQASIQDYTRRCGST
T1 sequence (Q923K1 21-858): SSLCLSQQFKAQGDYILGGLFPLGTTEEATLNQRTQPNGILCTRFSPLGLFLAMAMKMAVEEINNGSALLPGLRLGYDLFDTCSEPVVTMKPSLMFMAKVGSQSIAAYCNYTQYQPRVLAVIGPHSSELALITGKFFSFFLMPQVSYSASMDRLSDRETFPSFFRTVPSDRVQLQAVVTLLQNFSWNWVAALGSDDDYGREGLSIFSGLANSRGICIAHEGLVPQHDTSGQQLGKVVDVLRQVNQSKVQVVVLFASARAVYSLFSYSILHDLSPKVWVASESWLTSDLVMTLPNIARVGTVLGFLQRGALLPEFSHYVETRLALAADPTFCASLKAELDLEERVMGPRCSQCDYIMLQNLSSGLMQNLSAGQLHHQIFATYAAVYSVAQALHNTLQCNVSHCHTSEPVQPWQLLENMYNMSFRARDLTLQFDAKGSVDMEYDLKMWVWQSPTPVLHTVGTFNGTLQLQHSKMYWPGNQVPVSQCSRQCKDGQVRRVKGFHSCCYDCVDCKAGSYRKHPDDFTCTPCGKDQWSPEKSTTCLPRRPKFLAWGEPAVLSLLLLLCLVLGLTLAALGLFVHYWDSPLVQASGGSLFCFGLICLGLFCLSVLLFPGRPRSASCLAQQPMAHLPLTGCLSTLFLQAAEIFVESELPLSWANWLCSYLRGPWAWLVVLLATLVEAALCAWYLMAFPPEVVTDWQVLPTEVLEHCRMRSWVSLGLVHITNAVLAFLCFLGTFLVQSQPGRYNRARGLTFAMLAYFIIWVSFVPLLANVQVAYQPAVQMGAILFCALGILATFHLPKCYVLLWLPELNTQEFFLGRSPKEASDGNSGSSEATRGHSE
Experiment: Calcium assay, hTAS1R1 mutant co-expressed with rTAS1R3
Type: cell-based, human, rat

| Compound | EC50 | effect of the added compound (1 mM) on the response to L-Glu (D147A) | response to the agonist alone, vs WT (D147A) |
| --- | --- | --- | --- |
| N[C@@H](CCC(=O)N[C@@H](CS)C(=O)NCC(=O)O)C(=O)O [GSH, γ-L-glutamyl-L-cysteinyl-glycine] | > 30 mM | did not affect | fully abolished |
| CCCC(CCC)NC(=O)c1ccc2c(c1)OCO2 [S807, N-(heptan-4-yl)benzo[d][1,3]dioxole-5-carboxamide, reference compound] |  |  | strongly affected |
